These results are taken from patent US11071775B2, “Combination immunotherapy for treating cancer” (H. Lee Moffitt Cancer Center and Research Institute, Inc., priority 2015, dated 2021).

Data set [1] relates to human MDSCs. The conditions noted are these: in vitro; cited from earlier work.
Data set [2] has as its system MDSCs. As to the kind of experiment: ATRA in patients with metastatic renal cell carcinoma: MDSC and DC. The class given is in vivo, human.
The test system of data set [3] is Gr-1+ cells. The conditions noted are these: tumor-bearing mice, cited from earlier work.
Data set [4] has as its system Gr-1+ cells. The conditions noted are these: in vitro; cited from earlier work.
Data set [5] deals with MDSC. The data set can be described thus: Randomized phase II study: proportion of MDSC before and after immunization. The class given is in vivo, human.
Procedure: To assess immune response, PBMCs were collected from patients at different time points during the treatment (FIG. 4) and kept frozen in liquid nitrogen. All samples from one patient were analyzed simultaneously to reduce inter-experimental variability. PBMCs were thawed, incubated overnight in complete medium (RPMI-1640 supplemented with antibiotics and 10% FBS) and then used in experiments. Cell viability was greater than 80%.
Data set [6] relates to Retinoid Acid Receptor (RAR) and Retinoid X Receptor (RXR). The settings on record: cited from earlier work.
Data set [7] relates to ES-SCLC. The data set can be described thus: Randomized phase II study in ES-SCLC (NCT00617409): objective response and survival. The class given is in vivo, human. The conditions noted are these: arm A (observation, no vaccine).
Source text: Patients with ES-SCLC were enrolled to this randomized phase II study. […] After receiving initial chemotherapy, (4-6 cycles of a standard platinum/etoposide regimen as first-line chemotherapy), patients were enrolled and randomized. Additional eligibility included; stable disease (SD) or better with Eastern Cooperative Oncology Group (ECOG) performance status of 0 to 1, and adequate organ function were screened for initial registration approximately 4-6 weeks after the completion of first-line chemotherapy. Prophylactic cranial irradiation (PCI) was permitted.
Each vaccine consisted of 2-5×10^6 Ad-p53 DCs. Cells were injected intradermally, at two-week intervals for three times (three vaccine doses). Patients were restaged approximately 2 weeks after the 3rd vaccine dose. Patients without signs of disease progression (PD) underwent a second leukapheresis and then vaccinated 3 more times at 4-week intervals. Patients on Arm C also received 150 mg/m^2 ATRA for 3 days prior to each vaccine administration (followed by vaccine administration on the next day).
All patients were followed until evidence of PD at which time they received salvage or second line chemotherapy with single agent paclitaxel (200 mg/m2 IV every 3 weeks, 4-6 cycles).
The primary objective was to evaluate the efficacy of second line paclitaxel in the two experimental regimens (Arms B and C). […]
For data set [8] the following is noted: cited from earlier work.
The subject of data set [9] is advanced stage NSCLC. The conditions noted are these: cited from earlier work.
For data set [10], the system named is PD-L1 expressing or negative tumors. The conditions noted are these: cited from earlier work; for overall response rate (ORR): all patients.
For data set [11] the following is noted: 38 patients; cited from earlier work.

Like-named read-outs stand apart in the source and are kept apart here.

Turning to `CC1=C(/C=C/C(C)=C/C=C/C(C)=C/C(=O)O)C(C)(C)CCC1` [ATRA, all-trans-retinoic acid], in [1], the “fraction of MDSCs becoming DC-like” value was “⅔” and the “fraction of MDSCs becoming myeloid” value was “⅓”. Moreover, in data set [2], the MDSC/DC ratio result is listed as “improved MDSC/DC ratio to control levels” and the “presence of MDSC” value is on record as “significantly decreased the presence of MDSC”. Further, the “presence of Gr-1+ cells” value in [3] (in vivo administration) is on record as “dramatically reduces the presence of Gr-1^+ cells”. Besides, the “effect of tumor vaccines” value in data set [3] is “improves the effect of tumor vaccines”. The “differentiation and immunosuppressive effect of Gr-1+ cells” value in data set [4] is “differentiates these cells in vitro and removes their immunosuppressive effect”. In data set [5] (patients treated with ATRA (arm C), p=0.03), the “proportion of CD11b+CD14−CD33+ MDSC” value is on record as “decreased less dramatically but also significantly”. Further, the “presence of Lin−HLA-DR−CD33+ MDSC” value in data set [5] (patients treated with ATRA (arm C: vaccine plus 150 mg/m2 ATRA), p=0.02) was “decreased more than two-fold”. Further, the “relative affinity for RAR and RXR” value in data set [6] is recorded as “higher affinity to RAR”.

For `CC(=O)O[C@H]1C(=O)[C@@]2(C)[C@H]([C@H](OC(=O)c3ccccc3)[C@]3(O)C[C@H](OC(=O)[C@H](O)[C@@H](NC(=O)c4ccccc4)c4ccccc4)C(C)=C1C3(C)C)[C@]1(OC(C)=O)CO[C@@H]1C[C@@H]2O` [paclitaxel], the “OR to paclitaxel (or other second line treatment)” value in data set [7] is given as 1/11.

Consider “MK-3475: humanized monoclonal antibody of the IgG4/kappa isotype blocking the interaction between PD-1 and its ligands”, for which the “patients who developed grade 3/4 pneumonitis” value in data set [8] (2 patients in each schedule) is listed as “Four”. In addition, in data set [8] (217 patients), the “drug-related adverse event: arthralgia” value is listed as 6.1%. Moreover, the “drug-related adverse event: pruritis” value in data set [8] (217 patients) is recorded as 5.4%. Moreover, the “drug-related adverse event: pyrexia” value in data set [8] (217 patients) is 3.6%. Besides, the “patients with grade 3/4 drug-related adverse events” value in data set [8] (217 patients) is reported as “Six”. In addition, the “patients responding to therapy” value is on record as 67% in data set [9] (PD-L1 high tumors, Six of 9, 95% CI 30-93%) and 0% in data set [9] (PD-L1 low tumors, 0/22, 95% CI 0-15%). In addition, in data set [9] (investigator-assessed irRC, 38 patients), the “overall objective response rate” value is 24%. The ORR in data set [10] (PD-L1 expressing tumors, RECIST, (16-30%)) is reported as 23%; in data set [10] (PD-L1 expressing tumors, irRC, 95% CI 14-26%), 19%; in [10] (PD-L1 negative tumors, RECIST, (2-23%)) it was 9%; in data set [10] (PD-L1 negative tumors, irRC, 95% CI 4-27%) it was 13%. Also, the “overall response rate (ORR)” value in [10] (RECIST v1.1, 95% CI 15-26%) is listed as 20%; in [10] (irRC, 10 mg/kg Q2W or Q3W, 95% CI 13-24%) it was 18%. In data set [11], the drug-related deaths entry is reported as “no drug-related deaths”. For the same compound, in data set [11], the “grade 3/4 event (grade 3 pulmonary edema)” value was “one”.
